Laboratory results taken from EP1933809B1, “COMPOSITIONS FOR NASAL DELIVERY” (YISSUM RESEARCH DEVELOPMENT COMPANY OF THE HEBREW …, priority 2005, dated 2007).

Tests used:
Female Balb/c mice = assay: Writhing test in mice, writhing induced by IP acetic acid (Example 13); type: in vivo
Method: Experiments 1: The experiments were carried out on Female Balb/c mice (21-26g). Two experimental groups were used: control (untreated) (n=6) and treated group (n=6). […] Half an hour after nasal application, each animal in treated and control groups was IP administered with acetic acid 0.6% (10 ml/kg) and individually housed in cage with a smooth flat floor. Antinociception effect was recorded by counting the number of writhes 5 minutes after injection of acetic acid for period of 10 minutes. A writhe is indicated by abdominal constriction and stretching of at least one hind limb.
Experiment 2: The experiment was carried out on Female Balb/c mice (21-26g). Two experimental groups were used: control (untreated) (n=6) and treated group (n=6). […] Immediately after nasal application (t=0), each animal in treated and control groups was IP administered with acetic acid 0.6% (10 ml/kg) and individually housed in cage with a smooth flat floor. Antinociception was recorded by counting the number of writhes 5 minutes after injection of acetic acid for period of 10 minutes.
Experiment 3: The experiments were carried out on Female Balb/c mice (21-26g). Three experimental groups were used: control (untreated) (n=4), mice intranasally administered with the Diazepam IN vesicular composition (2.8µl in each nostril = diazepam dose of 5mg/kg animal) (n=4), and mice subcutaneously administered with the Diazepam solution 0.125 % at dose of 5mg/kg animal (n=4). […] Simultaneously, each animal in treated and control groups was IP administered with acetic acid 0.6% (10 ml/kg) and individually housed in cage with a smooth flat floor. Antinociception was recorded by counting the number of writhes 5 minutes after injection of acetic acid for period of 10 minutes.

nasal mucosa = assay: Transport of fluorescent probe across nasal mucosa after in vivo administration, CLS microscopy (Example 15); conditions: composition of the invention with 0.05% Rhodamine B, 100µL to the right nostril of rats, 1/2 hour
Method: A stock solution of Rhodamine B (2mg/mL) was prepared in water. 50mg of phospholipid were dissolved in 200 mg ethanol. […] The composition is stirred for additional 5 min. The composition is described in Table IV.

Plasmodium berghei anka = assay: Treatment and prophylaxis of malaria in infected mice, model of cerebral malaria (Example 12); type: in vivo; conditions: 10mg DHA/kg/day, ICR female mice; for mice survived: treatment regimen (from day 2 after infection, 4 days)
Method: Experiments were carried out in vivo in ICR female mice infected with 10^6 erythrocytes parasitized Plasmodium berghei anka, a model of cerebral malaria with striking similarities to the human disease. Infections were monitored using giemsa-stained thin blood smears prepared from tail blood. The animals were treated under isoflurane anesthesia with 10mg DHA/kg/day in a two divided daily doses by two dosage regimens: prophylaxis regimen- starting at 2 days before the infection for a total of 6 days; treatment regimen- starting on day 2 after infection (parasitemia first detected) for a total of 4 days. Mice were either treated by the intranasal administration or by the i.p. injection containing the same DHA doses. Controls included placebo (delivery carrier only) and untreated infected animals. Experiments were conducted in accordance with institutional guidelines for animal care.

CN1C(=O)CN=C(c2ccccc2)c2cc(Cl)ccc21 [diazepam, 7-chloro-1,3-dihydro-1-methyl-5-phenyl-2H-1,4-benzo-diazepin-2-one]
writhing episodes (number of writhes) (Female Balb/c mice; Experiment 1: intranasal vesicular composition, 5mg/kg, 0.5 h before acetic acid injection, versus untreated control): efficiently prevented writhing episodes | writhing episodes (number of writhes) (Female Balb/c mice; Experiment 2: intranasal vesicular composition, 5mg/kg, simultaneously with acetic acid injection, versus untreated control): efficient in treating writhing episodes | writhing episodes (number of writhes) (Female Balb/c mice; Experiment 3: intranasal vesicular composition 5mg/kg versus subcutaneous diazepam solution 5mg/kg, simultaneously with acetic acid injection): significantly more efficient in treating writhing episodes as compared to the same dose of the drug administered subcutaneously

CCN(CC)c1ccc2c(-c3ccccc3C(=O)O)c3ccc(=[N+](CC)CC)cc-3oc2c1.[Cl-] [rhodamine B, Rhodamine B]
transport across the nasal mucosa (nasal mucosa): efficiently delivered

C[C@H]1[C@@H](O)O[C@@H]2O[C@@]3(C)CC[C@H]4[C@H](C)CC[C@@H]1[C@@]24OO3 [DHA, dihydroartemisinin]
mice in which parasites appeared (Plasmodium berghei anka; prophylaxis regimen, i.p. injection): 74% | mice survived (Plasmodium berghei anka; i.p. injection): 19% | mice survived (Plasmodium berghei anka; intranasal): 75%
